Source: patent EP3436445B1, “HISTONE DEMETHYLASE INHIBITORS” (Celgene Quanticel Research, Inc., priority 2016, dated 2017)

Tests used:
FBXL10 = biological target: T1, FBXL10 (Homo sapiens, UniProt Q8NHM5); test: FBXL10 in vitro enzyme inhibition assay (AlphaScreen); format: biochemical
T1 construct: purchased BPS Bioscience 50120
T1 sequence (Q8NHM5 1-650): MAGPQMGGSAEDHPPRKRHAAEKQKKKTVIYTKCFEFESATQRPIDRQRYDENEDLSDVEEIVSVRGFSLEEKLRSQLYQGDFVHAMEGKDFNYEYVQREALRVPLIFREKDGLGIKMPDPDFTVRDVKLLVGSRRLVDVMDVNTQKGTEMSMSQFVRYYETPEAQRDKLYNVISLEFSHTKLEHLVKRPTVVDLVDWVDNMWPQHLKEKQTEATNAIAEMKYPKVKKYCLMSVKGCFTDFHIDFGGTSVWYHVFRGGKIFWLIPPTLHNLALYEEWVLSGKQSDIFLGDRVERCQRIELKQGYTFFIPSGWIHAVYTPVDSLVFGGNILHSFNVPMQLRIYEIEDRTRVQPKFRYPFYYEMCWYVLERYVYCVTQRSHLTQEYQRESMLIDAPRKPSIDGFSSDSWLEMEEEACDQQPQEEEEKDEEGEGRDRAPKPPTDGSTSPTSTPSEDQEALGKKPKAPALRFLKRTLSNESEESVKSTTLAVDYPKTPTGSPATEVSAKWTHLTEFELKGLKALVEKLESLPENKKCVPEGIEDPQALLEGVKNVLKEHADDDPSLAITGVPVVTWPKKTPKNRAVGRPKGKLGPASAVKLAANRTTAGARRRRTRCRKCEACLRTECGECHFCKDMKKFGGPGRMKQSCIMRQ
Description: This assay determines the ability of a test compound to inhibit FBXL11, FBXL10, and PHF8 demethylase activity. Baculovirus expressed FBXL11 (GenBank Accession #NM_012308, AA1-1162) was purchased from BPS Bioscience (Cat#50102). Baculovirus expressed FBXL10 (GenBank Accession #NM_032590, AA 1-650) was purchased from BPS Bioscience (Cat #50120). Baculovirus expressed PHF8 (GenBank Accession NP_055922.1) was purchased from Active Motif (Cat#31435).
The ability of test compounds to inhibit the activity of FBXL10 was determined in 384-well plate format under the following reaction conditions: 0.3 nM FBXL10, 30 nM H3K36me2-biotin labeled peptide (Anaspec cat # 64442), 0.2 µM alpha-ketoglutaric acid in assay buffer of 50 mM HEPES, pH7.3, 0.005% Brij35, 0.5 mM TCEP, 0.2 mg/ml BSA, 50 µM sodium L-ascorbate, 5 µM ammonium iron(II) sulfate. Reaction product is determined quantitatively by AlphaScreen detection after the addition of detection reagents anti-H3K36me1 antibody, AlphaScreen® Streptavidin-coated Donor beads, and AlphaScreen® Protein A Acceptor beads in 50 mM HEPES, pH7.3, 10 mM NaCl, 0.005% Brij35, 5 mM EDTA, 2 mg/ml BSA to final 10 µg/ml beads.
The assay reaction was initiated by the following: 3 µl of the mixture of 90 nM H3K36me2-biotin labeled peptide and 0.6 µM alpha-ketoglutaric acid with 3 µl of 11-point serial diluted inhibitor in 3% DMSO are added to each well of 384 well Proxiplate (Perkin Elmer), followed by the addition of 3 µl of 0.9 nM FBXL10 to initiate the reaction. The reaction mixture is incubated at room temperature for 1 hour, and terminated by the addition of 3 µl of appropriate dilution of anti H3K36me1 antibody in 50 mM HEPES, pH7.3, 10 mM NaCl, 0.005% Brij35, 5 mM EDTA, 2 mg/ml BSA. Plates will then incubated at room temperature for 40 minutes, followed by addition of 3 µl of 50 µg/ml AlphaScreen® Streptavidin-coated Donor beads and AlphaScreen® Protein A Acceptor beads in 50 mM HEPES, pH7.3, 10 mM NaCl, 0.005% Brij35, 5 mM EDTA, 2 mg/ml BSA. Plates will then be read by EnVision Multilabel Reader in AlphaScreen mode after minimum 2 hour incubation at room temperature. The AlphaScreen signal for each well is used to determine inhibition constant (IC50).

JMJD3 = biological target: T2, JMJD3 (Homo sapiens, UniProt O15054); test: JMJD3 in vitro enzyme inhibition assay (AlphaScreen); format: biochemical; conditions: Table 5; 1 nM JMJD3, H3K27me3-biotin labeled peptide
T2 construct: purchased BPS Bioscience 50115
Description: This assay determines the ability of a test compound to inhibit Jarid1B, JMJD2C and JMJD3 demethylase activity. Baculovirus expressed Jarid1B (GenBank Accession #NM-006618, AA 2-751) was purchased from BPS Bioscience (Cat #50121) or custom made by MolecularThroughput. Baculovirus expressed JMJD2C (GenBank Accession #BC143571, AA 2-372) was purchased from BPS Bioscience (Cat#50105). Baculovirus expressed JMJD3 (GenBank Accession #NM-001080424, AA1043-end) was purchased from BPS Bioscience (Cat#50115).
The ability of test compounds to inhibit the activity of JMJD3 was determined in 384-well plate format under the following reaction conditions: 1 nM JMJD3, 250 nM H3K27me3-biotin labeled peptide (Anaspec cat # 64367), 1 µM alpha-ketoglutaric acid in assay buffer of 50 mM HEPES, pH7.3, 0.005% Brij35, 0.5 mM TCEP, 0.2 mg/ml BSA, 50 µM sodium L-ascorbate, 5 µM ammonium iron(II) sulfate. Reaction product is determined quantitatively by AlphaScreen detection after the addition of detection reagents anti-H3K27me1 antibody, 5 µg/ml AlphaScreen® Streptavidin-coated Donor beads, and 5 µg/ml AlphaScreen® Protein A Acceptor beads in 50 mM HEPES, pH7.3, 10 mM NaCl, 0.005% Brij35, 10 mM EDTA, 2 mg/ml BSA.
The assay reaction was initiated by the following: 3 µl of the mixture of 750 nM H3K27me3-biotin labeled peptide and 3 µM alpha-ketoglutaric acid with 3 µl of 11-point serial diluted inhibitor in 3% DMSO are added to each well of 384 well Proxiplate (Perkin Elmer), followed by the addition of 3 µl of 3 nM JMJD3 to initiate the reaction. The reaction mixture is incubated at room temperature for 20 minutes, and terminated by the addition of 3 µl of appropriate dilution of anti H3K27me1 antibody in 50 mM HEPES, pH7.3, 10 mM NaCl, 0.005% Brij35, 10 mM EDTA, 2 mg/ml BSA. Plates will then incubated at room temperature for 1 hour, followed by addition of 3 µl of 25 µg/ml AlphaScreen® Streptavidin-coated Donor beads and AlphaScreen® Protein A Acceptor beads in 50 mM HEPES, pH7.3, 10 mM NaCl, 0.005% Brij35, 10 mM EDTA, 2 mg/ml BSA. Plates will then be read by EnVision Multilabel Reader in AlphaScreen mode after minimum 2 hour incubation at room temperature. The AlphaScreen signal for each well is used to determine inhibition constant (IC50).

[1] = Table 3, 0.3 nM FBXL10, H3K36me2-biotin labeled peptide

T2 sequence (O15054 1043-1682 isoform O15054-1): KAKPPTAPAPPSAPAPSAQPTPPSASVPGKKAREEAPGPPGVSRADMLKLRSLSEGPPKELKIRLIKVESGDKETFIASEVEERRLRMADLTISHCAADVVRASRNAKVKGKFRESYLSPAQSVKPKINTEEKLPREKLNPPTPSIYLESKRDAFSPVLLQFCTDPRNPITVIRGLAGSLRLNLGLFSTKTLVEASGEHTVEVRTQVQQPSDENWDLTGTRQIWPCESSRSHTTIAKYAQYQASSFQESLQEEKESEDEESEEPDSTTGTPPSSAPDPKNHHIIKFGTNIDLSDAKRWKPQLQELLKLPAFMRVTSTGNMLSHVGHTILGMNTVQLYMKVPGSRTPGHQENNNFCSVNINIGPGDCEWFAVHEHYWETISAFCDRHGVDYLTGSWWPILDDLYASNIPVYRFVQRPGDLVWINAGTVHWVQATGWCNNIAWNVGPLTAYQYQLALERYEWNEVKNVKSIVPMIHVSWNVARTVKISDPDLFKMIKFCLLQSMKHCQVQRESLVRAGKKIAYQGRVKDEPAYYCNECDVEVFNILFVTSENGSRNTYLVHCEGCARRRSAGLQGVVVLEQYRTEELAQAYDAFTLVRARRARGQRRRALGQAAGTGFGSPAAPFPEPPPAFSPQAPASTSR

Row | Structure (SMILES) | IC50 (FBXL10; [1]) | IC50 (FBXL10; Table 5) | IC50 (JMJD3)
1 | Clc1cccc(-n2cnc(-c3cc4[nH]nnc4cn3)c2)c1 [Example 51, 1-(3-chlorophenyl)-4-{1H-[1,2,3]triazolo[4,5-c]pyridin-6-yl}-1H-imidazole] | 100 to 1000 nM |  | 
2 | Clc1ccc(Cn2cnc(-c3cc4[nH]nnc4cn3)c2)cc1Cl [Example 48, 1-[(3,4-dichlorophenyl)methyl]-4-{1H-[1,2,3]triazolo[4,5-c]pyridin-6-yl}-1H-imidazole] | ≤ 100 nM |  | 
3 | Clc1ccc(Cn2cnc(-c3cc4[nH]nnc4cn3)c2)cc1 [Example 47, 1-[(4-chlorophenyl)methyl]-4-{1H-[1,2,3]triazolo[4,5-c]pyridin-6-yl}-1H-imidazole] | ≤ 100 nM |  | 
4 | Cn1cnc(-c2cc(-c3nn[nH]c3C(F)(F)F)ccn2)c1-c1ccc(F)cc1 [Example 97, 2-[5-(4-fluorophenyl)-1-methyl-1H-imidazol-4-yl]-4-[5-(trifluoromethyl)-1H-1,2,3-triazol-4-yl]pyridine] |  | ≤ 100 nM | > 10000 nM
5 | Clc1cccc(Cn2cnc(-c3cc4[nH]nnc4cn3)c2)c1 [Example 46, 1-[(3-chlorophenyl)methyl]-4-{1H-[1,2,3]triazolo[4,5-c]pyridin-6-yl}-1H-imidazole] | ≤ 100 nM |  | 
6 | Clc1ccc(-n2cnc(-c3cc4[nH]nnc4cn3)c2)cc1 [Example 49, 1-(4-chlorophenyl)-4-{1H-[1,2,3]triazolo[4,5-c]pyridin-6-yl}-1H-imidazole] | ≤ 100 nM |  | 
7 | Clc1ccccc1-n1cnc(-c2cc3[nH]nnc3cn2)c1 [Example 50, 1-(2-chlorophenyl)-4-{1H-[1,2,3]triazolo[4,5-c]pyridin-6-yl}-1H-imidazole] | ≤ 100 nM |  | 
8 | Clc1ccccc1Cn1cnc(-c2cc3[nH]nnc3cn2)c1 [Example 45, 1-[(2-chlorophenyl)methyl]-4-{1H-[1,2,3]triazolo[4,5-c]pyridin-6-yl}-1H-imidazole] | ≤ 100 nM |  | 
9 | Fc1ccc2c(c1)C(n1cnc(-c3cc(-c4nn[nH]c4C(F)(F)F)ccn3)c1)CC2 (centres unmarked) [Example 85, 2-[1-(6-fluoro-2,3-dihydro-1H-inden-1-yl)-1H-imidazol-4-yl]-4-[5-(trifluoromethyl)-1H-1,2,3-triazol-4-yl]pyridine] |  | ≤ 100 nM | 
10 | c1ccc(Cn2cnc(-c3cc4[nH]nnc4cn3)c2)cc1 [Example 44, 1-benzyl-4-{1H-[1,2,3]triazolo[4,5-c]pyridin-6-yl}-1H-imidazole] | ≤ 100 nM |  | 

Continued, values first:

Row | IC50 (FBXL10; [1]) | IC50 (FBXL10; Table 5) | IC50 (JMJD3) | Structure (SMILES)
11 |  | 100 to 1000 nM | > 10000 nM | FC(F)(F)COc1ccccc1Cn1cnc(-c2cc(-c3nn[nH]c3C(F)(F)F)ccn2)c1 [Example 76, 2-(1-{[2-(2,2,2-trifluoroethoxy)phenyl]methyl}-1H-imidazol-4-yl)-4-[5-(trifluoromethyl)-1H-1,2,3-triazol-4-yl]pyridine]
12 |  | ≤ 100 nM | > 10000 nM | Fc1ccc(Cn2cnc(-c3cc(-c4nn[nH]c4C(F)(F)F)ccn3)c2)cc1 [Example 61, 2-{1-[(4-fluorophenyl)methyl]-1H-imidazol-4-yl}-4-[5-(trifluoromethyl)-1H-1,2,3-triazol-4-yl]pyridine]
13 |  | ≤ 100 nM | > 10000 nM | FC(F)(F)c1[nH]nnc1-c1ccnc(-c2cn(CC3CCCc4ccccc43)cn2)c1 (centres unmarked) [Example 58, 2-{1-[(1,2,3,4-tetrahydronaphthalen-1-yl)methyl]-1H-imidazol-4-yl}-4-[5-(trifluoromethyl)-1H-1,2,3-triazol-4-yl]pyridine]
14 |  | ≤ 100 nM | > 10000 nM | FC(F)(F)c1[nH]nnc1-c1ccnc(-c2cn(Cc3ccccc3)cn2)c1 [Example 72, 2-(1-benzyl-1H-imidazol-4-yl)-4-[5-(trifluoromethyl)-1H-1,2,3-triazol-4-yl]pyridine]
15 |  | ≤ 100 nM | > 10000 nM | Fc1cc(F)c(CCn2cnc(-c3cc(-c4nn[nH]c4C(F)(F)F)ccn3)c2)c(F)c1 [Example 82, 4-[5-(trifluoromethyl)-1H-1,2,3-triazol-4-yl]-2-{1-[2-(2,4,6-trifluorophenyl)ethyl]-1H-imidazol-4-yl}pyridine]
16 |  | 100 to 1000 nM |  | FC(F)(F)c1[nH]nnc1-c1ccnc(-c2cn(CC3CCc4ccccc43)cn2)c1 (centres unmarked) [Example 83, 2-{1-[(2,3-dihydro-1H-inden-1-yl)methyl]-1H-imidazol-4-yl}-4-[5-(trifluoromethyl)-1H-1,2,3-triazol-4-yl]pyridine]
17 |  |  | > 10000 nM | CCc1ccc(CCn2cnc(-c3cc(-c4nn[nH]c4C(F)(F)F)ccn3)c2)cc1 [Example 95, 2-{1-[2-(4-ethylphenyl)ethyl]-1H-imidazol-4-yl}-4-[5-(trifluoromethyl)-1H-1,2,3-triazol-4-yl]pyridine]
18 |  | 100 to 1000 nM |  | FC(F)(F)c1ccccc1CCn1cnc(-c2cc(-c3nn[nH]c3C(F)(F)F)ccn2)c1 [Example 60, 4-[5-(trifluoromethyl)-1H-1,2,3-triazol-4-yl]-2-(1-{2-[2-(trifluoromethyl)phenyl]ethyl}-1H-imidazol-4-yl)pyridine]
19 |  | ≤ 100 nM |  | Fc1ccccc1CCn1cnc(-c2cc(-c3nn[nH]c3C(F)(F)F)ccn2)c1 [Example 84, 2-{1-[2-(2-fluorophenyl)ethyl]-1H-imidazol-4-yl}-4-[5-(trifluoromethyl)-1H-1,2,3-triazol-4-yl]pyridine]
20 |  |  | > 10000 nM | COc1cccc2c1CCCC2Cn1cnc(-c2cc(-c3nn[nH]c3C(F)(F)F)ccn2)c1 (centres unmarked) [Example 104, 2-{1-[(5-methoxy-1,2,3,4-tetrahydronaphthalen-1-yl)methyl]-1H-imidazol-4-yl}-4-[5-(trifluoromethyl)-1H-1,2,3-triazol-4-yl]pyridine]
